Laboratory results as given in patent publication US6004999A, “Triptolide derivatives useful in the treatment of autoimmune diseases” (priority 1998, dated 1999).
In brackets after ≈: the same amount, converted by molar mass.

Legend:
[1] = tested on: rat model of adjuvant-induced arthritis; experiment: Anti-inflammatory activity in the rat model of adjuvant-induced arthritis; assay type: in vivo, rat (male Wistar-Lewis); details: 12 consecutive days
Description: (§1) Following generally the procedure of Pearson and Wood, Arth. Rheum., 2, 44 (1959), the anti-inflammatory activity of the following compounds was determined in a rat model of adjuvant-induced arthritis. Male Wistar-Lewisrats (Mollegaard, Breeding Centre Ltd, BIBY, DK 4623 LI, SKENSVED, P.P. Box 28, DK) with a body weight between 160 g and 200 g are used. Freund's adjuvant (0.1 mL, 6 mg Mycobacterium smegmatis suspension per mL in heavy white paraffin oil, Merck/Darmstadt) was injected into the base of the tail. Between day 10 and day 14 of the test, immunopathological processes let to chronic inflammation, especially in the form of arthritic and periarthritic symptoms in all parts of the body. The animals received standardized food Altromin-R (Altrogge, Lage) and had free access to water. The compounds were administered i.p. (a suspension in carboxymethyl cellulose solution in an injection volume of 0.5 mL/100 g body weight) on 12 consecutive days, starting with the day of the adjuvant injection. On day 1 and day 18 of the study, the volume of both hind paws and the body weight were recorded, and in addition on day 18 the arthritis index. Cyclosporin A and Prednisolone were used as standard compounds. In addition, table IV presents the percent change in body weight (weight gain) between day 1 and day 21 of the above test.

[2] = Percent change in body weight in the adjuvant-induced arthritis rat test; assay type: in vivo, rat (male Wistar-Lewis); details: between day 1 and day 21, arthritic CMC control 17.9, normal non-arthritic animals 32.0
Description: as §1

[3] = tested on: Jurkat E6-1 cell line or lymphocytes prepared from fresh human blood; experiment: Cell viability (MTT mitochondrial enzyme assay); assay type: cell-based; details: cell viability after 16-24 hours incubation; MTT 4 hours
Description: (§2) Jurkat E6-1 cell line (ATCC), a human leukemic T cell line or lymphocytes prepared from fresh human blood, are grown in complete culture medium consisting of RPMI-1640 (Mediatech) supplemented with 10% v/v fetal bovine serum (HyClone, Logen, Vermont), penicillin (100 units/mL), streptomycin ([…]), and 2mM L-glutamine (GIBCO, Grand Island, N.Y.). The cells are grown to a concentration of between 1.2 to 1.8×10^6 cells/mL before use. The cells are then centrifuged at low speed and resuspended to a concentration of 1.25×10^6 cells/mL in fresh medium.
(§3) The compounds to be tested are dissolved in DMSO, and water is added to make a 50% DMSO/water solution. The compounds are then diluted in sterile water such that the DMSO concentrations are less then 0.05%. The cells at a concentration of 1.25×10^6 cells/mL are stimulated with phytohemagglutinin 10 μg/mL (PHA) and 10^-8 M phorbol ester (12-O-tetradecanoylphorbol 13-acetate: TPA), (Sigma, St. Louis, Mo.). The compounds are then added and the cells are plated in flat-bottom tissue culture plates (Falcon, Lincoln Park, N.J.), with 250,000 cells/well. Plates are then incubated at 37° C. in a 5% CO2 atmosphere.
Cell viability is measured by the use of a mitochondrial enzyme assay. After removal of the supernatant for the IL-2 assay, Cell Titer 96 (a commercial solution of MTT obtained from Promega, Madison, Wis.), is added to the plates and incubated for 4 hours at 37° C. A solubilization solution is then added and incubated overnight. The plates are then read on an ELISA plate reader at a wavelength of 570 nm. Table II presents the results for the lnterleukin-2 assay, the cell viability assay and the ratio of cell viability/IL-2 inhibition.

IL-2 production = experiment: Interleukin-2 assay: IL-2 production by PHA/TPA-stimulated cells (ELISA); assay type: cell-based, human; details: PHA 10 μg/mL and 10^-8 M TPA stimulation; 16-24 hours
Description: as §2, §3
After incubation (16-24 hours), the cells are assayed for IL-2 production and cell viability (MTT). IL-2 production is assayed utilizing a solid phase ELISA immunoassay, sold in kit form by R&D Systems, Inc., Minneapolis, Minn.

[4] = tested on: immunosuppressive activity; details: in conjunction with another immunosuppressive agent (cyclosporin A, FK506, etc.); WO 94/26265; cited from earlier work
lymphocyte proliferation = details: Yang et al. 1992, 1994; cited from earlier work

Q: Which results are given for Cyclosporin A?
A: % Inhibition ([1]; 10 mg/kg/day i.p.): 100%; % Change in Body Weight (weight gain) ([2]; 10 mg/kg/day i.p.): 27.2%

Q: With “[1S-(1α, 2β, 3α, 3aβ,4aR, 4bα, 11β, 11aα)-3-chloro-1, 2,3,3a,4b,5,6,9,9b, 10,11,11a-dodecahydro-1,11a-dihydroxy-4b-methyl-2-(1-methylethyl)-2,11 -epoxy-7oxireno[4b,5]phenanthro[1,2-c]furan-7-one [Example 3]” as the compound, how does the “IC50 /MTT” value [3] read?
A: > 1,000 ng/mL

Q: What about the “IC50 /IL-2” value (IL-2 production) of the same compound?
A: 0.14 µg/mL

Q: With `C[C@@H](CO)[C@]12O[C@H]1[C@@H]1O[C@]13[C@]1(O[C@H]1C[C@H]1C4=C(CC[C@@]13C)C(=O)OC4)[C@@H]2O` [16-hydroxytriptolide] as the compound, how does the immunosuppressive activity [4] read?
A: increase in immunosuppressive activity relative to the sum of the effects

Q: What does the source list for “[1S (1α, 2β,3α, 3aβ,4aR*,4bα, 11aα)1-3-chloro-1, 2,3,3a,4b,5,6,9,9b, 10,11,11a-dodecahydro-1,2,11a-trihydroxy-4b-methyl-2-(1 -methylethyl)-7H-oxireno[4b,5]phenanthro [1,2-c]furan-7-one [Example 2]”?
A: IC50 /MTT [3]: 550 ng/mL; IC50 /IL-2 (IL-2 production): 0.06 µg/mL

Q: For `CC(C)[C@]12O[C@H]1[C@@H]1O[C@]13[C@]1(O[C@H]1C[C@H]1C4=C(CC[C@@]13C)C(=O)OC4)[C@@H]2O` [Triptolide], which “IC50 /MTT” value [3] is on record?
A: 5 ng/mL (≈ 0.0139 µM)

Q: And the “% Inhibition” value ([1]; 0.2 mg/kg/day i.p.)?
A: 70%

Q: What about the “% Inhibition” value ([1]; 0.4 mg/kg/day i.p.) of the same compound?
A: 85%

Q: And the “% Inhibition” value ([1]; 0.8 mg/kg/day i.p.)?
A: 76%

Q: What about the “% Change in Body Weight (weight gain)” value ([2]; 0.2 mg/kg/day i.p.) of the same compound?
A: 17.2%

Q: And the “% Change in Body Weight (weight gain)” value ([2]; 0.4 mg/kg/day i.p.)?
A: 22.0%

Q: What about the “% Change in Body Weight (weight gain)” value ([2]; 0.8 mg/kg/day i.p.) of the same compound?
A: 18.0%

Q: What about the suppress lymphocyte proliferation (lymphocyte proliferation) of the same compound?
A: suppress lymphocyte proliferation

Q: Which results are given for `C[C@]12C=CC(=O)C=C1CC[C@@H]1[C@@H]2[C@@H](O)C[C@@]2(C)[C@H]1CC[C@]2(O)C(=O)CO` [Prednisolone]?
A: % Inhibition ([1]; 15 mg/kg/day i.p.): 100%; % Change in Body Weight (weight gain) ([2]; 15 mg/kg/day i.p.): 14.2%

Q: For `CC(C)C12OC1C1OC13C1(C)CCC4=C(COC4=O)C1CCC3(O)C2O` (stereo not drawn) [Example 1, [5aR-(5aα,6α,6aα,7aα,7bβ,8aS*,8bα)]-3,3b,4,5,5a,6,6a,7a,7b,8b,9,10-dodecahydro-5a,6-dihydroxy-8b-methyl-6a-(1-methylethyl)-1H-bisoxireno[4b,5:6,7]phenanthro[1,2-c]furan-1-one], which “% Inhibition” value ([1]; 10 mg/kg/day i.p.) is on record?
A: 90%

Q: And the “% Change in Body Weight (weight gain)” value ([2]; 10 mg/kg/day i.p.)?
A: 29.9%

Q: And the “IC50 /IL-2” value (IL-2 production)?
A: 0.036 µg/mL (≈ 0.0993 µM)
